Laboratory results reported in US9216956B2, “Deuterium-enriched 4-hydroxy-5-methoxy-N,1-dimethyl-2-oxo-N-[(4-trifluoro-methyl)phenyl]-1,2-dihydroquinoline-3-carboxamide” (ACTIVE BIOTECH AB, priority 2011, dated 2015).
Values joined by “and” are separate entries in the source; they are usually repeats but may differ in a detail not shown here. Equal values may be shown once.

Tests used:
[1] = system: LNCaP tumor; test: Anti-tumor effect on subcutaneous LNCaP-19 tumor in Nude BALB/c mice; type: in vivo, mouse; settings: 10 mg/kg/day via drinking water from day 7
Method: The anti-tumor effect of deuterated ABR-215050 was studied in mouse.
The castration resistant subline LNCaP-19 was previously established from LNCaP cells (12). Cells were maintained as previously described (13). The LNCaP-19 cells were between passage 10 and 23 when used in the experiments. Passage 1 is defined as the first passage in our laboratory. The cells were tested and found free from mycoplasma.
Male athymic Nude BALB/c mice (age 8 weeks) were purchased from Taconic (Lille Skensved, Denmark). For subcutaneous implantation, one million tumor cells suspended in 200 μl Matrigel (BD Bioscience, Bedford, Mass.) were inoculated on the flank of the mice. The tumor size was measured by a caliper once a week throughout the experiment and the tumor take was 75% in the untreated control group (n=12). In the tumor growth experiment, ABR-215050-dx (10 mg/kg/day) was administered via drinking water from day 7. To assure appropriate dose was given with no significant fluctuations, water consumption was monitored for each animal cage during the entire experiment. […] Animals were sacrificed when the average tumor size for the control group reached a volume of 900±100 mm^3 or when the tumor volume for an individual animal reached 1200 mm^3 The results are illustrated in FIG. 7.

[2] = In vivo pharmacokinetics in rat: plasma levels of parents and amide-N demethyl metabolite after 1:1 mixture; settings: for Plasma level: peroral 2.5 mg/kg of each compound (1:1 mixture)
Source text: Therefore, the pharmacokinetic characteristics of the amide-N methyl deuterated ABR-215050 (herein below referred to as ABR-215050-dx), wherein the amide-N methyl moiety was tri-deuterated, compared to the non-deuterated parent compound were studied in rat. […] In other words: relative to ABR-215050, the in vivo formation of ABR-215691 was reduced to only 25% when ABR-215050-dx was used.
A deuterated (also referred to as deuterium-enriched) ABR-215050 was synthesized, wherein the amide-N methyl moiety was trideuterated (ABR-215050-dx). This deuterated compound was diluted with non-deuterated ABR-215050 to a molar ratio of 1:1. The 1:1 equivalent molar mixture was administrated to rats in an in vivo experiment. Because of additional 13-carbon labeling in the quinoline scaffold, the formed amide-N demethyl metabolites could be measured selectively by means of HPLC-MS (High performance Liquid Chromatography with Mass Spectrometric detection). In Table 5, the plasma levels of ABR-215050-dx and ABR-215050 (in nM) measured in 4 different rats are shown, as well as the ratio of these two compounds.

[3] = system: CYP1A2; test: In vivo CYP1A2 induction in rat, MROD activity of liver microsomes; settings: rat, in vivo
Method: (§1) The in vivo induction of CYP1A1 and CYP1A2 after repeated administration of ABR-215050 and of ABR-215050-dx, respectively, was studied in rat.
(§2) Test preparations B and C and blank preparation A were made as follows: For preparation B, ABR-215050 was dissolved in NaOH and sterile water at a concentration of 0.5 mg/mL. The pH of the solution was adjusted to pH 7.4-8.5. Preparation C was made in the same way, using ABR-215050-dx. Preparation A was a blank containing only water. The preparations were stored in a refrigerator for a maximum of one week before use.
(§3) On arrival at the laboratory, the test animals were 9 weeks old Sprague Dawley male rats having a body weight of 250 g. They were divided into 3 groups and were allowed to acclimatize for at least 7 days before the test. During the whole acclimatization and test period, the animals received water and feed (Labfor R70, form Kimstad, Sweden) ad libitum, and were kept under a 12 hours dark/12 hours light cycle, at a temperature of 20±2° C. and a relative humidity of 50±15%.
(§4) Before administration of any test preparation, the body weight of each animal was measured and the individual dose to be administered to an animal was determined based on the weight of the animal. Administration was performed perorally during 4 days, cf.
(§5) At 24 h after administration of the final dose, the animals were weighed and from each animal a final blood sample was withdrawn for a pharmacokinetic analysis. The animals then were euthanized and from each one the liver was withdrawn, weighed, and immediately frozen in crushed dry ice. The livers then were stored at −70° C. until preparation of microsomes.
(§6) Microsomes were prepared according to the method M-0287 “Preparation of subcellular fractions from animal tissues” and then kept at −70° C. until analysis.
(§7) The total protein concentration of the microsomal fraction was determined according to the method M-0289 “Determination of Protein according to Hartree”.

[4] = system: CYP1A1; test: In vivo CYP1A1 induction in rat, EROD activity of liver microsomes
Method: as §1, §2, §3, §4, §5, §6, §7

## [2H]C([2H])([2H])N(C(=O)c1c(O)c2c(OC)cccc2n(C)c1=O)c1ccc(C(F)(F)F)cc1 [ABR-215050-dx, 4-Hydroxy-5-methoxy-N-deuteriomethyl-1-methyl-2-oxo-N-[(4-trifluoromethyl)phenyl]-1,2-dihydroquinoline-3-carboxamide]
[1]
  anti-tumor effect (in words): retains a high therapeutic activity
[2]; mean of rats 1-4
  Ratio of metabolite plasma levels, Mean: 0.26
  Reduction of amide-N demethylation, Mean: 74.1%
[2]; mean of rats 1-4 (1-4 h), peroral 2.5 mg/kg
  Plasma levels of ABR-215691 from the administered compound, Mean: 74.8 nM
[2]; rat
  formation of demethylated metabolite compared to non-deuterium labeled ABR-215050 (in words): diminished by as much as a factor of four
  in vivo formation of ABR-215691 relative to ABR-215050: 25%
[2]; rat No 1, 1 h
  Ratio ABR-215050-dx/ABR-215050 (plasma levels): 0.97
  Ratio of metabolite plasma levels (ABR-215691 from ABR-215050-dx / from ABR-215050): 0.24
  Reduction of amide-N demethylation: 75.8%
  Plasma level: 13394 nM
[2]; rat No 1, 1 h, peroral 2.5 mg/kg
  Plasma levels of ABR-215691 from the administered compound: 64.0 nM
[2]; rat No 2, 2 h
  Ratio ABR-215050-dx/ABR-215050 (plasma levels): 0.99
  Ratio of metabolite plasma levels (ABR-215691 from ABR-215050-dx / from ABR-215050): 0.30
  Reduction of amide-N demethylation: 70.5%
  Plasma level: 13665 nM
[2]; rat No 2, 2 h, peroral 2.5 mg/kg
  Plasma levels of ABR-215691 from the administered compound: 93.9 nM
[2]; rat No 3, 3 h
  Ratio ABR-215050-dx/ABR-215050 (plasma levels): 0.99
  Ratio of metabolite plasma levels (ABR-215691 from ABR-215050-dx / from ABR-215050): 0.24
  Reduction of amide-N demethylation: 75.7%
  Plasma level: 7322 nM
[2]; rat No 3, 3 h, peroral 2.5 mg/kg
  Plasma levels of ABR-215691 from the administered compound: 46.6 nM
[2]; rat No 4, 4 h
  Ratio ABR-215050-dx/ABR-215050 (plasma levels): 1.00
  Ratio of metabolite plasma levels (ABR-215691 from ABR-215050-dx / from ABR-215050): 0.25
  Reduction of amide-N demethylation: 74.6%
  Plasma level: 17824 nM
[2]; rat No 4, 4 h, peroral 2.5 mg/kg
  Plasma levels of ABR-215691 from the administered compound: 94.6 nM
[3]
  mean fold induction of CYP1A2: 5.5
  reduction of the fold induction of CYP1A2 versus ABR-215050: 68%
[3]; 1 mg/kg
  CYP1A2 activity (MROD), Mean: 111 pmol/mg prot/min
[4]; (42-11.5)/42×100%
  reduction of the fold induction of CYP1A1 versus ABR-215050: 73%
[4]; group mean, 1 mg/kg perorally days 1-4
  CYP1A1 activity (EROD), Mean: 534 pmol/mg prot/min
[4]; group mean, versus water group
  mean fold induction of CYP1A1: 11.5
[4]; individual rat, 1 mg/kg perorally days 1-4, liver microsomes 24 h after final dose, 1 mg/kg
  CYP1A1 activity (EROD): 556 pmol/mg prot/min and 511 pmol/mg prot/min
[4]; individual rat, versus water group
  CYP1A1 Fold induction: 12 and 11
